Data reported in patent US8329063B2, “Low-emission formaldehyde donor preparations” (Air Liquide Sante (International), priority 2004, dated 2012).

Experiments:
[1] = Determining formaldehyde in the gas phase above preservatives (Dräger tubes 0.2/a); assay type: physicochemical
Protocol: 1. Method of Determining Formaldehyde in the Gas Phase
(§1) • The determination of the formaldehyde content in the gas phase above various preservatives was carried out using Dräger tubes 0.2/a (No. 6733081) in accordance with the instructions for use from Dräger Safety AG & Co. KGaA (9th Edition, July 2001). For this purpose, about 100 g of the sample to be investigated were introduced into a 250 ml wide-necked beaker with a screw lid and left to stand, in the closed state, for at least 3 hours at room temperature. The measurement was read off after 2 strokes on the scale 0.5 to 5 ppm, n=10. […] 2. Method of Determining Ammonia (Amine) in the Gas Phase • The determination of the amine content in the gas phase above various preservatives was carried out using Dräger tubes 2/a (No. 6733231) in accordance with the instructions for use from Dräger Safety AG & Co. KGaA (9th Edition, July 2001). For this purpose, about 100 g of the sample to be investigated were introduced into a 250 ml wide-necked beaker with a screw lid and left to stand, in the closed state, for at least 3 hours at room temperature. The measurement was read off after one stroke on the scale. […] 3. Formaldehyde and Amine Emissions of Preservatives • In the gas phase of preservatives formulated as described below, using the methods described under 1. and 2., the following formaldehyde and amine concentrations were measured in the gas phase (Table 1): • Preservatives A, B and C were prepared by adding urea and monoethylene glycol dissolved in water to Grotan® OX and stripping off the water on a rotary evaporator (2 hours at 60° C. and 30 mbar). Preservative D (comparative) was prepared by adding monoethylene glycol to Grotan® OX.

[2] = Determining ammonia (amine) in the gas phase above preservatives (Dräger tubes 2/a); assay type: physicochemical; settings: amine as NH3
Protocol: as §1

ppm of HCHO ([1]; After 2 weeks (gas phase)): 3-5 ppm
ppm of HCHO ([1]; After 11 weeks (gas phase)): 0.7 ppm
ppm of HCHO ([1]; After 4 days (gas phase)): 3 ppm
ppm of amine ([2]; After 2 weeks (gas phase)): 15 ppm
ppm of amine ([2]; After 11 weeks (gas phase)): 13 ppm
ppm of amine ([2]; After 4 days (gas phase)): 10 ppm
SMILES: CC1CN(CN2COC(C)C2)CO1 (stereo not drawn) [Example E, N,N′-methylenebis(5-methyloxazolidine)]
